Experimental data reported in patent publication US20160168126A1, “CHEMICAL COMPOUNDS” (SYNGENTA LIMITED, priority 2013, published 2016).

Test system: a variety of test species
Assay: Post-emergence herbicidal activity (glasshouse, sprayed 8 days after sowing, evaluated after 13 days); for Post-emergence herbicidal damage score, ABUTH (Abutilon theophrasti): key: 5=total damage to plant; 0=no damage to plant; for Post-emergence herbicidal damage score, AMARE (Amaranthus retroflexus): key: 5=total damage to plant; 0=no damage to plant
Format: in vivo
Conditions: scale 0-5
Outline: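 Foliar application to 8-day-old plants using a 0.5% Tween 20 acetone/water carrier; phytotoxicity is scored visually from 0 to 5 after 13 days of growth at 24/16 °C day/night.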

SMILES | Post-emergence herbicidal damage score, ABUTH (Abutilon theophrasti) (250 g/ha) | Post-emergence herbicidal damage score, ALOMY (Alopecurus myosuroides) (250 g/ha) | Post-emergence herbicidal damage score, AMARE (Amaranthus retroflexus) (250 g/ha) | Post-emergence herbicidal damage score, ECHCG (Echinochloa crus-galli) (250 g/ha) | Post-emergence herbicidal damage score, SETFA (Setaria faberi) (250 g/ha) | Post-emergence herbicidal damage score, ZEAMX (Zea mays) (250 g/ha) | Post-emergence herbicidal damage score, ABUTH (Abutilon theophrasti) (1000 g/ha) | Post-emergence herbicidal damage score, ALOMY (Alopecurus myosuroides) (1000 g/ha) | Post-emergence herbicidal damage score, AMARE (Amaranthus retroflexus) (1000 g/ha) | Post-emergence herbicidal damage score, ECHCG (Echinochloa crus-galli) (1000 g/ha) | Post-emergence herbicidal damage score, SETFA (Setaria faberi) (1000 g/ha) | Post-emergence herbicidal damage score, ZEAMX (Zea mays) (1000 g/ha)
COC1=C(C)C(=O)N(c2cc(C(C)(C)C)n(C)n2)C1O (stereo not drawn) [Compound I2] | 5 | 4 | 5 | 3 | 4 | 1 | – | – | – | – | – | –
COC1=C(C)C(=O)N(c2cc(C(F)(F)F)n(C)n2)C1O (stereo not drawn) [Compound I3] | – | – | – | – | – | – | 5 | 5 | 5 | 5 | 5 | 4
COC1=C(C)C(=O)N(c2nn(C)c3c2CCC3(C)C)C1O (stereo not drawn) [Compound I4] | – | – | – | – | – | – | 5 | 5 | 5 | 5 | 5 | 3
COC1=C(C)C(=O)N(c2cc3n(n2)CCCC3(C)C)C1O (stereo not drawn) [Compound I5] | – | – | – | – | – | – | 5 | 5 | 5 | 5 | 5 | 4
COC1=C(Cl)C(O)N(c2cc(C(C)(C)C)n(C)n2)C1=O (stereo not drawn) [Compound J1, 1-(5-tert-butyl-1-methyl-pyrazol-3-yl)-3-chloro-2-hydroxy-4-methoxy-2H-pyrrol-5-one] | – | – | – | – | – | – | 5 | 5 | 5 | 5 | 5 | 3
